Molecules are shown by their SMILES. Some results are limits rather than exact numbers.

Format in all cases: cell-based
The target of one test is T1, STAT3 (Homo sapiens, UniProt P40763).
T1 construct: plasmid pSTAT3-TA-luc), which contains a stably operating STAT3 promoter; endogenous in cells
In words: STAT3 reporter gene assay (luciferase), LNCaP stable cell line (pSTAT3-TA-luc), IL-6 stimulation. The essentials:
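Cytotoxicity was run on a duplicate plate with CellTiter-Glo, while the other plate gave luciferase read-outs from lysed LNCaP pSTAT3-TA-luc reporter cells. Cells were treated with graded compound concentrations plus IL-6 (10 ng/mL final) for 24–48 h in 3% DCC-FBS medium. Unstimulated and stimulated wells served as negative and positive controls.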
A general note: In a reporter assay the amount or activity of a reporter protein is the signal.

A further test relates to LNCaP. In words: Cell growth inhibition assay, prostate cancer cell line LNCaP (medium with 10 ng/mL IL-6). The conditions noted are these: Homo sapiens, medium supplemented with 10 ng/mL of IL-6, 10,000 cells/well.
For the next test, the system named is MDA-MB-231. Description: Cell growth inhibition assay, breast cancer cell line MDA-MB-231. The conditions noted are these: Homo sapiens; MDA-MB-231 breast cancer cell line, 5,000 cells/well.

T1 sequence (P40763 whole entry): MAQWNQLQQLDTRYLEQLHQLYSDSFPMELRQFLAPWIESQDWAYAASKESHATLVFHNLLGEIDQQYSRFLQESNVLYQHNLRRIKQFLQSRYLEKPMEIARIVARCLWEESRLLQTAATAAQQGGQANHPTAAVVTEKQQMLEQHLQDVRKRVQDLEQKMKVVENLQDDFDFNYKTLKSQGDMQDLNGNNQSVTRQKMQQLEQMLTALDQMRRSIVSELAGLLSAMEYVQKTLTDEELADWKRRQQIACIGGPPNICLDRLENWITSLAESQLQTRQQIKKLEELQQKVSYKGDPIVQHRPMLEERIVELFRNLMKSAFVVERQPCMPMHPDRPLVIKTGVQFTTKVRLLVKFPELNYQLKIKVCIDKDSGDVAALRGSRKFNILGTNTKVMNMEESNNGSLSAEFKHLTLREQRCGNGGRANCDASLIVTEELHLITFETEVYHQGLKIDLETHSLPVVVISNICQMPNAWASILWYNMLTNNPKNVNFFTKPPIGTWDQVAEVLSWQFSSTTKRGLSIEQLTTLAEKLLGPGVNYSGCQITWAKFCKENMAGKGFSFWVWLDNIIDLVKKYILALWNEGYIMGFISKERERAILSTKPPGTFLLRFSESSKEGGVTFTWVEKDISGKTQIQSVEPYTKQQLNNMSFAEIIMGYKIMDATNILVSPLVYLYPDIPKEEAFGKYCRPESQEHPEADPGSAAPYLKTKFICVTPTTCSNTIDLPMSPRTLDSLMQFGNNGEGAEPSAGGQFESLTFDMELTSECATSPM

The term IC50 denotes the concentration needed to halve the response being measured. Lower therefore signals inhibition by little substance. Regarding `COc1cc(NS(C)(=O)=O)cc2cc(C(=O)Nc3cccc(-c4ccc(F)cc4F)c3)oc12` [Example 112, N-(2′,4′-difluoro-[1,1′-biphenyl]-3-yl)-7-methoxy-5-(methylsulfonamido)benzofuran-2-carboxamide], the results for the 50% inhibitory concentration (IC50) against STAT3, in the test on LNCaP and with MDA-MB-231 were 6.8 µM, 8.6 µM and greater than 10 µM, respectively.

For `COc1cc(NS(C)(=O)=O)cc2cc(C(=O)Nc3cccc(C(C)(C)c4ccc(F)cc4)c3)oc12` [Example 113, N-(3-(2-(4-fluorophenyl)propan-2-yl)phenyl)-7-methoxy-5-(methylsulfonamido)benzofuran-2-carboxamide], the half-inhibitory concentration (IC50) at STAT3 is 8.9 µM; in the test on LNCaP, greater than 10 µM; in the test with MDA-MB-231, 6.4 µM.

Take `CC(C)(c1cccc(CN2CCNCC2)c1)c1cc(Br)cc(NC(=O)c2cc3cc(NS(C)(=O)=O)ccc3s2)c1` [Example 118, N-(3-bromo-5-(2-(3-(piperazin-1-ylmethyl)phenyl)propan-2-yl)phenyl)-5-(methylsulfonamido) benzo[b]thiophene-2-carboxamide]: the IC50 against STAT3 is greater than 10 µM; with LNCaP, greater than 10 µM; in the test on MDA-MB-231 it was 8.6 µM.

Consider `CC(C)(c1cccc(CN2CCNCC2)c1)c1cc(Br)cc(NC(=O)c2cc3ccc(NS(C)(=O)=O)cc3[nH]2)c1` [Example 119, N-(3-bromo-5-(2-(3-(piperazin-1-ylmethyl)phenyl)propan-2-yl)phenyl)-6-(methylsulfonamido)-1H-indole-2-carboxamide], for which the IC50 against STAT3 was greater than 10 µM; in the test on LNCaP, greater than 10 µM; with MDA-MB-231 it was 6.1 µM.

Take `CC(C)(c1cccc(C#N)c1)c1cccc(NC(=O)c2cc3cc(NS(C)(=O)=O)ccc3s2)c1` [Example 224, N-(3-(2-(3-cyanophenyl)propan-2-yl)phenyl)-5-(methylsulfonamido)benzo[b]thiophene-2-carboxamide]: the IC50 amounted to 0.26 µM against STAT3, 0.27 µM in the test with LNCaP and 0.033 µM in the test with MDA-MB-231.

Turning to `COc1cc2cc(C(=O)Nc3cccc(-c4ccc(F)cc4F)c3)[nH]c2cc1NS(C)(=O)=O` [Example 236, N-(2′,4′-difluoro-[1,1′-biphenyl]-3-yl)-5-methoxy-6-(methylsulfonamido)-1H-indole-2-carboxamide], the 50% inhibitory concentration (IC50) against STAT3 amounted to 0.31 µM; in the test on LNCaP it was 2.7 µM; in the test with MDA-MB-231, 0.41 µM.

With `CS(=O)(=O)Nc1ccc2sc(C(=O)Nc3cccc(-c4ccc(F)cc4F)c3)cc2c1` [Example 237, N-(2′,4′-difluoro-[1,1′-biphenyl]-3-yl)-5-(methylsulfonamido)benzo[b]thiophene-2-carboxamide], the half-inhibitory concentration (IC50) on STAT3 is 0.11 µM; with LNCaP, 0.61 µM; with MDA-MB-231 it was 0.01 µM.

In the case of `CS(=O)(=O)Nc1ccc2oc(C(=O)Nc3cccc(-c4ccc(F)cc4F)c3)cc2c1` [Example 238, N-(2′,4′-difluoro-[1,1′-biphenyl]-3-yl)-5-(methylsulfonamido)benzofuran-2-carboxamide], the IC50 against STAT3 was 0.27 µM; in the test with LNCaP, 2.4 µM; with MDA-MB-231, 0.55 µM.

Take `O=C(Nc1cccc(-c2ccc(F)cc2F)c1)c1cc2cc(OC(F)(F)F)ccc2[nH]1` [Example 239, N-(2′,4′-difluoro-[1,1′-biphenyl]-3-yl)-5-(trifluoromethoxy)-1H-indole-2-carboxamide]: the IC50 was greater than 10 µM at STAT3, 8.3 µM with LNCaP and greater than 10 µM with MDA-MB-231.

In the case of `CS(=O)(=O)c1ccc2cc(C(=O)Nc3cccc(-c4ccc(F)cc4F)c3)[nH]c2c1` [Example 240, N-(2′,4′-difluoro-[1,1′-biphenyl]-3-yl)-6-(methylsulfonyl)-1H-indole-2-carboxamide], the IC50 at STAT3, in the test on LNCaP and with MDA-MB-231 was greater than 10 µM in each case.

Consider `Cc1c(C(=O)Nc2cccc(-c3ccc(F)cc3F)c2)sc2cc(NS(C)(=O)=O)ccc12` [Example 241, N-(2′,4′-difluoro-[1,1′-biphenyl]-3-yl)-3-methyl-6-(methylsulfonamido)benzo[b]thiophene-2-carboxamide], for which the IC50 on STAT3 was found to be 1.8 µM; in the test with LNCaP, 5.4 µM; in the test with MDA-MB-231 it was 2.7 µM.

For the molecule `CS(=O)(=O)Nc1ccc2cc(C(=O)Nc3cccc(-c4ccc(F)cc4F)c3)sc2c1` [Example 242, N-(2′,4′-difluoro-[1,1′-biphenyl]-3-yl)-6-(methylsulfonamido)benzo[b]thiophene-2-carboxamide], the IC50 came out at 0.96 µM at STAT3, 4 µM with LNCaP and 0.54 µM in the test with MDA-MB-231.

As for `Cc1c(C(=O)Nc2cccc(-c3ccc(F)cc3F)c2)sc2ccc(NS(C)(=O)=O)cc12` [Example 243, N-(2′,4′-difluoro-[1,1′-biphenyl]-3-yl)-3-methyl-5-(methylsulfonamido)benzo[b]thiophene-2-carboxamide], the IC50 on STAT3 was 7.2 µM; in the test with LNCaP it was 6.4 µM; with MDA-MB-231 it was 1.6 µM.

In the case of `CC(=O)c1cc(NC(=O)c2cc3ccc(NS(C)(=O)=O)cc3[nH]2)cc(-c2ccc(F)cc2F)c1` [Example 245, N-(5-acetyl-2′,4′-difluoro-[1,1′-biphenyl]-3-yl)-6-(methylsulfonamido)-1H-indole-2-carboxamide], the figures for the half-maximal inhibitory concentration (IC50) at STAT3, with LNCaP and in the test with MDA-MB-231 were 1.4 µM, 4.9 µM and 2.6 µM, respectively.

On to `CS(=O)(=O)Nc1ccc2cc(C(=O)Nc3cc(-c4ccc(F)cc4F)c4cn[nH]c4c3)[nH]c2c1` [Example 246, N-(4-(2,4-difluorophenyl)-1H-indazol-6-yl)-6-(methylsulfonamido)-1H-indole-2-carboxamide], for which the IC50 on STAT3 came to 8.4 µM; in the test with LNCaP, 9.2 µM; in the test with MDA-MB-231, 3.5 µM.

In the case of `CNS(=O)(=O)Nc1ccc2cc(C(=O)Nc3cccc(-c4ccccc4C(F)(F)F)c3)[nH]c2c1` [Example 269], the IC50 is 2.3 µM against STAT3, 4.1 µM in the test with LNCaP and 2.1 µM in the test on MDA-MB-231.

In the case of `COc1cc2cc(C(=O)Nc3cc(Br)cc(-c4ccc(F)cc4F)c3)[nH]c2cc1NS(C)(=O)=O` [Example 303, N-(5-bromo-2′,4′-difluoro-[1,1′-biphenyl]-3-yl)-5-methoxy-6-(methylsulfonamido)-1H-indole-2-carboxamide], the values for the IC50 against STAT3, in the test with LNCaP and in the test on MDA-MB-231 were 0.23 µM, 0.72 µM and 0.02 µM, respectively.

Turning to `CS(=O)(=O)c1ccc2cc(C(=O)Nc3cc(Br)cc(-c4ccc(F)cc4F)c3)[nH]c2c1` [Example 304, N-(5-bromo-2′,4′-difluoro-[1,1′-biphenyl]-3-yl)-6-(methylsulfonyl)-1H-indole-2-carboxamide], the half-maximal inhibitory concentration (IC50) is 4 µM at STAT3, greater than 10 µM in the test with LNCaP and 5.3 µM with MDA-MB-231.

Take `CS(=O)(=O)Nc1ccc2oc(C(=O)Nc3cc(Br)cc(-c4ccc(F)cc4F)c3)cc2c1` [Example 306, N-(5-bromo-2′,4′-difluoro-[1,1′-biphenyl]-3-yl)-5-(methylsulfonamido)benzofuran-2-carboxamide]: the IC50 against STAT3 was determined as 0.28 µM; in the test on LNCaP, 1.7 µM; in the test on MDA-MB-231, 0.37 µM.

For `CNS(=O)(=O)Nc1ccc2cc(C(=O)Nc3cc(Br)cc(-c4ccc(F)cc4F)c3)[nH]c2c1` [Example 307, N-(5-bromo-2′,4′-difluoro-[1,1′-biphenyl]-3-yl)-6-((N-methylsulfamoyl)amino)-1H-indole-2-carboxamide], the IC50 against STAT3 was 1.1 µM; in the test on LNCaP it was 4.8 µM; in the test on MDA-MB-231 it was 0.84 µM.

As to `O=C(Nc1cc(Br)cc(-c2ccc(F)cc2F)c1)c1cc2cc(OC(F)(F)F)ccc2[nH]1` [Example 308, N-(5-bromo-2′,4′-difluoro-[1,1′-biphenyl]-3-yl)-5-(trifluoromethoxy)-1H-indole-2-carboxamide], the concentration for half-maximal inhibition (IC50) on STAT3 was 5.6 µM; in the test on LNCaP, greater than 10 µM; in the test with MDA-MB-231 it was 8.1 µM.

Take `Cc1c(C(=O)Nc2cc(Br)cc(-c3ccc(F)cc3F)c2)sc2cc(NS(C)(=O)=O)ccc12` [Example 309, N-(5-bromo-2′,4′-difluoro-[1,1′-biphenyl]-3-yl)-3-methyl-6-(methylsulfonamido)benzo[b]thiophene-2-carboxamide]: the IC50 is 1.5 µM against STAT3, 5.9 µM with LNCaP and 1.2 µM in the test on MDA-MB-231.

Consider `CS(=O)(=O)Nc1ccc2cc(C(=O)Nc3cc(Br)cc(-c4ccc(F)cc4F)c3)sc2c1` [Example 310, N-(5-bromo-2′,4′-difluoro-[1,1′-biphenyl]-3-yl)-6-(methylsulfonamido)benzo[b]thiophene-2-carboxamide], for which the IC50 was 0.8 µM on STAT3, 3.2 µM with LNCaP and 0.39 µM in the test with MDA-MB-231.

Consider `Cc1c(C(=O)Nc2cc(Br)cc(-c3ccc(F)cc3F)c2)sc2ccc(NS(C)(=O)=O)cc12` [Example 311, N-(5-bromo-2′,4′-difluoro-[1,1′-biphenyl]-3-yl)-3-methyl-5-(methylsulfonamido)benzo[b]thiophene-2-carboxamide], for which the IC50 worked out at 5.7 µM against STAT3, 6.7 µM with LNCaP and 1 µM in the test on MDA-MB-231.

On to `CS(=O)(=O)Nc1ccc2cc(C(=O)Nc3cc(F)cc(-c4ccc(F)cc4F)c3)[nH]c2c1` [Example 312, 6-(methylsulfonamido)-N-(2′,4′,5-trifluoro-[1,1′-biphenyl]-3-yl)-1H-indole-2-carboxamide], for which the figures for the IC50 on STAT3, in the test on LNCaP and with MDA-MB-231 were 0.24 µM, 1.3 µM and 0.22 µM, respectively.

Turning to `CS(=O)(=O)Nc1ccc2cc(C(=O)Nc3cc(-c4ccc(F)cc4F)cc(C(F)(F)F)c3)[nH]c2c1` [Example 313, N-(2′,4′-difluoro-5-(trifluoromethyl)-[1,1′-biphenyl]-3-yl)-6-(methylsulfonamido)-1H-indole-2-carboxamide], the IC50 came out at 3.6 µM on STAT3, 3.7 µM in the test on LNCaP and 0.14 µM with MDA-MB-231.

Values taken from patent US10562912B2 (C&C Research Laboratories, priority 2013, dated 2020).
